Results: ChEMBL document CHEMBL3885881, “DrugMatrix”

Organism: Rattus norvegicus
Assay: DrugMatrix - Regimen: Daily Repeat
Type: toxicity, organism-based, Sprague-Dawley
Parameters: regimen Daily Repeat, gender Male, age 6-8 weeks
Settings: in vivo, po, 85 mg/kg, route oral GAVAGE, dose level Low, vehicle .5 % CMC; for ABSOLUTE BASOPHIL / ABSOLUTE EOSINOPHIL / ABSOLUTE LYMPHOCYTE / ABSOLUTE MONOCYTE / ABSOLUTE SEGMENTED NEUTROPHIL / BASOPHIL / EOSINOPHIL / ERYTHROCYTE COUNT / HEMATOCRIT / HEMOGLOBIN / LEUKOCYTE COUNT / LYMPHOCYTE / MEAN CORPUSCULAR HEMOGLOBIN / MEAN CORPUSCULAR HEMOGLOBIN CONCENTRATION / MEAN CORPUSCULAR VOLUME / MONOCYTE / NEUTROPHIL / NUCLEATED RED BLOOD CELLS / PLATELET COUNT: tissue Blood; for ALANINE AMINOTRANSFERASE / ALBUMIN / ALKALINE PHOSPHATASE / ASPARTATE AMINOTRANSFERASE / BLOOD UREA NITROGEN / CARBON DIOXIDE / CHLORIDE / CHOLESTEROL / CREATINE PHOSPHOKINASE / CREATININE / GLUCOSE / LACTATE DEHYDROGENASE / LIPASE / PHOSPHORUS / POTASSIUM / SODIUM / TOTAL BILIRUBIN / TOTAL PROTEIN / URIC ACID: tissue Plasma

CCCN(CCC)C(=O)C(CCC(=O)O)NC(=O)c1ccccc1 (stereo unspecified) [PROGLUMIDE]
ABSOLUTE BASOPHIL (72 h, time 3 day): 0 CELLS/uL
ABSOLUTE EOSINOPHIL (72 h, time 3 day): 331.33 CELLS/uL
ABSOLUTE LYMPHOCYTE (72 h, time 3 day): 13210.67 CELLS/uL
ABSOLUTE MONOCYTE (72 h, time 3 day): 258 CELLS/uL
ABSOLUTE SEGMENTED NEUTROPHIL (72 h, time 3 day): 933.33 CELLS/uL
BASOPHIL (72 h, time 3 day): 0%
EOSINOPHIL (72 h, time 3 day): 2.33%
ERYTHROCYTE COUNT (72 h, time 3 day): 5.4 x10E6/uL
HEMATOCRIT (72 h, time 3 day): 34.93%
HEMOGLOBIN (72 h, time 3 day): 13.17 G/DL
LEUKOCYTE COUNT (72 h, time 3 day): 14.73 x10E3/uL
LYMPHOCYTE (72 h, time 3 day): 89.67%
MEAN CORPUSCULAR HEMOGLOBIN (72 h, time 3 day): 24.43 pg
MEAN CORPUSCULAR HEMOGLOBIN CONCENTRATION (72 h, time 3 day): 37.7 G/DL
MEAN CORPUSCULAR VOLUME (72 h, time 3 day): 64.7 fL
MONOCYTE (72 h, time 3 day): 1.67%
NEUTROPHIL (72 h, time 3 day): 6.33%
NUCLEATED RED BLOOD CELLS (72 h, time 3 day): 0.33 /100WBC
PLATELET COUNT (72 h, time 3 day): 1332 x10E3/uL
ALANINE AMINOTRANSFERASE (72 h, time 3 day): 42.67 u/L
ALBUMIN (72 h, time 3 day): 4.33 G/DL
ALKALINE PHOSPHATASE (72 h, time 3 day): 435.67 u/L
ASPARTATE AMINOTRANSFERASE (72 h, time 3 day): 72.33 u/L
BLOOD UREA NITROGEN (72 h, time 3 day): 16 mg/dL
CARBON DIOXIDE (72 h, time 3 day): 25.33 mmol/L
CHLORIDE (72 h, time 3 day): 104.33 MEQ/L
CHOLESTEROL (72 h, time 3 day): 60.67 mg/dL
CREATINE PHOSPHOKINASE (72 h, time 3 day): 288 u/L
CREATININE (72 h, time 3 day): 0.18 mg/dL
GLUCOSE (72 h, time 3 day): 161.67 mg/dL
LACTATE DEHYDROGENASE (72 h, time 3 day): 90.33 u/L
LIPASE (72 h, time 3 day): 9 u/L
PHOSPHORUS (72 h, time 3 day): 13.33 mg/dL
POTASSIUM (72 h, time 3 day): 6.41 MEQ/L
SODIUM (72 h, time 3 day): 144.2 MEQ/L
TOTAL BILIRUBIN (72 h, time 3 day): 0.23 mg/dL
TOTAL PROTEIN (72 h, time 3 day): 5.93 G/DL
URIC ACID (72 h, time 3 day): 1.67 mg/dL
ABSOLUTE BASOPHIL (120 h, time 5 day): 0 CELLS/uL
ABSOLUTE EOSINOPHIL (120 h, time 5 day): 53.33 CELLS/uL
ABSOLUTE LYMPHOCYTE (120 h, time 5 day): 15727.33 CELLS/uL
ABSOLUTE MONOCYTE (120 h, time 5 day): 190.67 CELLS/uL
ABSOLUTE SEGMENTED NEUTROPHIL (120 h, time 5 day): 1162 CELLS/uL
BASOPHIL (120 h, time 5 day): 0%
EOSINOPHIL (120 h, time 5 day): 0.33%
ERYTHROCYTE COUNT (120 h, time 5 day): 5.46 x10E6/uL
HEMATOCRIT (120 h, time 5 day): 35.63%
HEMOGLOBIN (120 h, time 5 day): 13.3 G/DL
LEUKOCYTE COUNT (120 h, time 5 day): 17.13 x10E3/uL
LYMPHOCYTE (120 h, time 5 day): 92%
MEAN CORPUSCULAR HEMOGLOBIN (120 h, time 5 day): 24.37 pg
MEAN CORPUSCULAR HEMOGLOBIN CONCENTRATION (120 h, time 5 day): 37.4 G/DL
MEAN CORPUSCULAR VOLUME (120 h, time 5 day): 65.13 fL
MONOCYTE (120 h, time 5 day): 1%
NEUTROPHIL (120 h, time 5 day): 6.67%
NUCLEATED RED BLOOD CELLS (120 h, time 5 day): 0 /100WBC
PLATELET COUNT (120 h, time 5 day): 1361 x10E3/uL
ALANINE AMINOTRANSFERASE (120 h, time 5 day): 50.67 u/L
ALBUMIN (120 h, time 5 day): 4 G/DL
ALKALINE PHOSPHATASE (120 h, time 5 day): 346.33 u/L
ASPARTATE AMINOTRANSFERASE (120 h, time 5 day): 79 u/L
BLOOD UREA NITROGEN (120 h, time 5 day): 17 mg/dL
CARBON DIOXIDE (120 h, time 5 day): 24.67 mmol/L
CHLORIDE (120 h, time 5 day): 108 MEQ/L
CHOLESTEROL (120 h, time 5 day): 61.67 mg/dL
CREATINE PHOSPHOKINASE (120 h, time 5 day): 409.67 u/L
CREATININE (120 h, time 5 day): 0.19 mg/dL
GLUCOSE (120 h, time 5 day): 187 mg/dL
LACTATE DEHYDROGENASE (120 h, time 5 day): 92.33 u/L
LIPASE (120 h, time 5 day): 8 u/L
PHOSPHORUS (120 h, time 5 day): 13.57 mg/dL
POTASSIUM (120 h, time 5 day): 5.82 MEQ/L
SODIUM (120 h, time 5 day): 144.9 MEQ/L
TOTAL BILIRUBIN (120 h, time 5 day): 0.27 mg/dL
TOTAL PROTEIN (120 h, time 5 day): 6.03 G/DL
URIC ACID (120 h, time 5 day): 1.67 mg/dL
